Laboratory results from paper PMC6213900, “Design, Synthesis, and Cytotoxic Analysis of Novel Hederagenin–Pyrazine Derivatives Based on Partial Least Squares Discriminant Analysis” (International Journal of Molecular Sciences, 2018).
Read-outs that look alike come from different tables or passages of the source.

Tests used:
[1] = system: H9c2 (murine heart myoblast); assay: MTT toxicity evaluation, H9c2; format: cell-based; details: non-tumor cells, read-out: Half Maximal Inhibitory Concentration (IC50) H9c2
Protocol: (§1) The cytotoxicity of hederagenin derivatives in vitro was evaluated on three tumor cell lines (A549: human non-small-cell lung cancer; MCF-7: human mammary cancer; HepG2: human hepatocellular carcinoma) using the 3-(4,5-dimethylthiazol-2-yl)-2,5-diphenyltetrazolium bromide (MTT) assay. In addition, their toxicity evaluations were tested on H9c2 (murine heart myoblast) and MDCK (Madin–Darby canine kidney) cells. MCF-7, A549, HepG2, H9c2, and MDCK cells were obtained from the Chinese Academy of Medical Sciences and Peking Union Medical College. All of the cell lines were maintained in Dulbecco’s modified Eagle medium (DMEM) supplemented with 1% (v/v) penicillin/streptomycin and 10% (v/v) fetal bovine serum (FBS; Thermo Technologies, New York, NY, USA) under a humidified atmosphere containing 5% CO2 at 37 °C. The stock solutions of He derivatives were dissolved in dimethyl sulfoxide (DMSO; Sigma, St. Louis, MO, USA) and added at various concentrations to the cell culture. Cellular morphologies were observed using an inverted fluorescence microscope (Olympus IX71, Tokyo, Japan), a plate reader (BIORAD 550 spectrophotometer, Bio-rad Life Science Development Ltd., Beijing, China), and a Canton 2 flow cytometer (BD, New York, NY, USA). The antitumor activity of these compounds were evaluated on MCF-7, A549, HepG2, MDCK, and H9c2 cell lines using the MTT assay. Cells at a density of 3 × 10^3 cells/well were plated in a 96-multiwell plate in DMEM containing 10% FBS for 24 h at 37 °C with 5% CO2. Then, cells were treated for 72 h with the required concentrations (3.125, 6.25, 12.5, 25, or 50 μM) of the compounds and reference drugs (He and DDP) dissolved with the vehicle DMSO. After that, the culture substrate was replaced with 200 μL of DMEM containing 20 μL of MTT solution at 5 mg/mL and incubated for 4 h. The supernatant was removed and the dissolved formazans precipitated with 120 μL of DMSO. Wells without drugs were used as blanks. A plate reader was used to determine the absorbance at 490 nm. The above steps were repeated three times. The IC50 values were defined as the concentration of the compound which gave 50% growth inhibition, and they were calculated using Graph Pad Prism 5. The inhibition rate was calculated using the following formula, where OD is the optical density:% inhibition = 1 − (Sample group OD/Control group OD) × 100%. (1)

[2] = system: A549 (human non-small-cell lung cancer); assay: MTT cytotoxicity assay, A549; format: cell-based; details: read-out: Half Maximal Inhibitory Concentration (IC50) A549
Protocol: as §1

[3] = system: MDCK (Madin–Darby canine kidney) cells; assay: MTT toxicity evaluation, MDCK; format: cell-based; details: 72 h treatment, non-tumor cells, read-out: Half Maximal Inhibitory Concentration (IC50) MDCK
Protocol: as §1

[4] = system: MCF-7 (human mammary cancer); assay: MTT cytotoxicity assay, MCF-7; format: cell-based; details: read-out: Half Maximal Inhibitory Concentration (IC50) MCF-7
Protocol: as §1

[5] = system: HepG2 (human hepatocellular carcinoma); assay: MTT cytotoxicity assay, HepG2; format: cell-based; details: MTT, 72 h treatment, read-out: Half Maximal Inhibitory Concentration (IC50) HepG2
Protocol: as §1

[6] = Homo sapiens, A549, 72 h treatment
[7] = Homo sapiens, MCF7, 72 h treatment

With CC1(C)CC[C@]2(C(=O)OCc3cnccn3)CC[C@]3(C)C(=CCC4[C@@]5(C)CC[C@H](O)[C@@](C)(CO)C5CC[C@]43C)C2C1 (stereo partly drawn) [Compound 1, Pyrazin-2-ylmethyl(4aS,6aS,6bR,9R,10S,12aR)-10-hydroxy-9-(hydroxymethyl)-2,2,6a,6b,9,12a-hexamethyl-1,3,4,5,6,6a,6b,7,8,8a,9,10,11,12,12a,12b,13,14b-octadecahydropicene-4a(2H)-carboxylate] the melting point was 146.8 °C, the IC50 ([1]; H9c2, 72 h treatment) was 14.7 ± 0.51 µM and the IC50 [2, 6] was 17.6 ± 0.37 µM. It also gave an IC50 ([3]; Canis lupus familiaris, MDCK) of 18.1 ± 0.25 µM, an IC50 [4, 7] of 16.05 ± 0.01 µM and an IC50 ([5]; Homo sapiens, HepG2) of 18.79 ± 0.04 µM.
Work on Cc1cncc(COC(=O)[C@]23CCC(C)(C)CC2C2=CCC4[C@@]5(C)CC[C@H](O)[C@@](C)(CO)C5CC[C@@]4(C)[C@]2(C)CC3)n1 (stereo partly drawn) [Compound 2, (6-Methylpyrazin-2-yl)methyl(4aS,6aS,6bR,9R,10S,12aR)-10-hydroxy-9-(hydroxymethyl)-2,2,6a,6b,9,12a-hexamethyl-1,3,4,5,6,6a,6b,7,8,8a,9,10,11,12,12a,12b,13,14b-octadecahydropicene-4a(2H)-carboxylate] yielded a melting point of 107 °C, an IC50 ([1]; H9c2, 72 h treatment) of 25.1 ± 0.43 µM and an IC50 [2, 6] of 20.6 ± 0.29 µM. It also gave an IC50 ([3]; Canis lupus familiaris, MDCK) of 26.7 ± 1.64 µM, an IC50 [4, 7] of 15.8 ± 0.22 µM and an IC50 ([5]; Homo sapiens, HepG2) of 27.2 ± 1.82 µM.
In the case of Cc1cnc(COC(=O)[C@]23CCC(C)(C)CC2C2=CCC4[C@@]5(C)CC[C@H](O)[C@@](C)(CO)C5CC[C@@]4(C)[C@]2(C)CC3)cn1 (stereo partly drawn) [Compound 3, (5-Methylpyrazin-2-yl)methyl(4aS,6aS,6bR,9R,10S,12aR)-10-hydroxy-9-(hydroxymethyl)-2,2,6a,6b,9,12a-hexamethyl-1,3,4,5,6,6a,6b,7,8,8a,9,10,11,12,12a,12b,13,14b-octadecahydropicene-4a(2H)-carboxylate], the melting point is reported as 170.3 °C, the IC50 ([1]; H9c2, 72 h treatment) is reported as > 30 µM and the IC50 [2, 6] is reported as 15 ± 0.35 µM. The IC50 ([3]; Canis lupus familiaris, MDCK) was 18.4 ± 3.76 µM, the IC50 [4, 7] was 16.8 ± 9.25 µM and the IC50 ([5]; Homo sapiens, HepG2) was 18.9 ± 0.35 µM.
In the case of Cc1nccnc1COC(=O)[C@]12CCC(C)(C)CC1C1=CCC3[C@@]4(C)CC[C@H](O)[C@@](C)(CO)C4CC[C@@]3(C)[C@]1(C)CC2 (stereo partly drawn) [Compound 4, (3-Methylpyrazin-2-yl)methyl(4aS,6aS,6bR,9R,10S,12aR)-10-hydroxy-9-(hydroxymethyl)-2,2,6a,6b,9,12a-hexamethyl-1,3,4,5,6,6a,6b,7,8,8a,9,10,11,12,12a,12b,13,14b-octadecahydropicene-4a(2H)-carboxylate], the melting point is reported as 170.4 °C, the IC50 ([1]; H9c2, 72 h treatment) is reported as 20.4 ± 2.24 µM and the IC50 [2, 6] is reported as 17.1 ± 1.06 µM. The IC50 ([3]; Canis lupus familiaris, MDCK) was 26.1 ± 1.02 µM, the IC50 [4, 7] was 17.3 ± 0.48 µM and the IC50 ([5]; Homo sapiens, HepG2) was 25.5 ± 1.4 µM.
For Cc1ncc(COC(=O)[C@]23CCC(C)(C)CC2C2=CCC4[C@@]5(C)CC[C@H](O)[C@@](C)(CO)C5CC[C@@]4(C)[C@]2(C)CC3)nc1C (stereo partly drawn) [Compound 5, (5,6-Dimethylpyrazin-2-yl)methyl(4aS,6aS,6bR,9R,10S,12aR)-10-hydroxy-9-(hydroxymethyl)-2,2,6a,6b,9,12a-hexamethyl-1,3,4,5,6,6a,6b,7,8,8a,9,10,11,12,12a,12b,13,14b-octadecahydropicene-4a(2H)-carboxylate], the melting point was > 200 °C, the IC50 ([1]; H9c2, 72 h treatment) was 28.5 ± 0.29 µM and the IC50 [2, 6] was 24.4 ± 0.37 µM. For the same compound, the IC50 ([3]; Canis lupus familiaris, MDCK) was 23.5 ± 0.67 µM, the IC50 [4, 7] was > 30 µM and the IC50 ([5]; Homo sapiens, HepG2) was 24.94 ± 0.06 µM.
In the case of Cc1nc(C)c(COC(=O)[C@]23CCC(C)(C)CC2C2=CCC4[C@@]5(C)CC[C@H](O)[C@@](C)(CO)C5CC[C@@]4(C)[C@]2(C)CC3)nc1C (stereo partly drawn) [Compound 6, (3,5,6-Trimethylpyrazin-2-yl)methyl(4aS,6aS,6bR,9R,10S,12aR)-10-hydroxy-9-(hydroxymethyl)-2,2,6a,6b,9,12a-hexamethyl-1,3,4,5,6,6a,6b,7,8,8a,9,10,11,12,12a,12b,13,14b-octadecahydropicene-4a(2H)-carboxylate], the melting point is reported as 127.8 °C, the IC50 ([1]; H9c2, 72 h treatment) is reported as > 30 µM and the IC50 [2, 6] is reported as 25.5 ± 0.26 µM. For the same compound, the IC50 ([3]; Canis lupus familiaris, MDCK) was 24.1 ± 0.76 µM, the IC50 [4, 7] was > 30 µM and the IC50 ([5]; Homo sapiens, HepG2) was > 30 µM.
With CC1(C)CC[C@]2(C(=O)OCCO)CC[C@]3(C)C(=CCC4[C@@]5(C)CC[C@H](O)[C@@](C)(CO)C5CC[C@]43C)C2C1 (stereo partly drawn) [Compound 7, 2-Hydroxyethyl (4aS,6aS,6bR,9R,10S,12aR)-10-hydroxy-9-(hydroxymethyl)-2,2,6a,6b,9,12a-hexamethyl-1,3,4,5,6,6a,6b,7,8,8a,9,10,11,12,12a,12b,13,14b-octadecahydropicene-4a(2H)-carboxylate] the melting point was 246.6 °C, the IC50 ([1]; H9c2, 72 h treatment) was > 30 µM and the IC50 [2, 6] was > 30 µM. The IC50 ([3]; Canis lupus familiaris, MDCK) was > 30 µM, the IC50 [4, 7] was > 30 µM and the IC50 ([5]; Homo sapiens, HepG2) was > 30 µM.
CC1(C)CC[C@]2(C(=O)OCCOC(=O)c3cnccn3)CC[C@]3(C)C(=CCC4[C@@]5(C)CC[C@H](O)[C@@](C)(CO)C5CC[C@]43C)C2C1 (stereo partly drawn) [Compound 8, 2-(((4aS,6aS,6bR,9R,10S,12aR)-10-Hydroxy-9-(hydroxymethyl)-2,2,6a,6b,9,12a-hexamethyl-1,2,3,4,4a,5,6,6a,6b,7,8,8a,9,10,11,12,12a,12b,13,14b-icosahydropicene-4a-carbonyl)oxy)ethylpyrazine-2-carboxylate] showed a melting point of 154.7 °C, an IC50 ([1]; H9c2, 72 h treatment) of 21.7 ± 0.86 µM and an IC50 [2, 6] of 23.9 ± 0.31 µM. For the same compound, the IC50 ([3]; Canis lupus familiaris, MDCK) was 20.1 ± 0.3 µM, the IC50 [4, 7] was 25.35 ± 0.09 µM and the IC50 ([5]; Homo sapiens, HepG2) was 17.4 ± 0.75 µM.
Compound Cc1cnc(C(=O)OCCOC(=O)[C@]23CCC(C)(C)CC2C2=CCC4[C@@]5(C)CC[C@H](O)[C@@](C)(CO)C5CC[C@@]4(C)[C@]2(C)CC3)cn1 (stereo partly drawn) [Compound 10, 2-(((4aS,6aS,6bR,9R,10S,12aR)-10-Hydroxy-9-(hydroxymethyl)-2,2,6a,6b,9,12a-hexamethyl-1,2,3,4,4a,5,6,6a,6b,7,8,8a,9,10,11,12,12a,12b,13,14b-icosahydropicene-4a-carbonyl)oxy)ethyl-5-methylpyrazine-2-carboxylate] has a melting point of 192.6 °C, an IC50 ([1]; H9c2, 72 h treatment) of 19.6 ± 3.29 µM and an IC50 [2, 6] of 20.9 ± 0.68 µM. For the same compound, the IC50 ([3]; Canis lupus familiaris, MDCK) was 25.4 ± 0.28 µM, the IC50 [4, 7] was 27.2 ± 2.09 µM and the IC50 ([5]; Homo sapiens, HepG2) was 28.17 ± 0.21 µM.
For Cc1nccnc1C(=O)OCCOC(=O)[C@]12CCC(C)(C)CC1C1=CCC3[C@@]4(C)CC[C@H](O)[C@@](C)(CO)C4CC[C@@]3(C)[C@]1(C)CC2 (stereo partly drawn) [Compound 11, 2-(((4aS,6aS,6bR,9R,10S,12aR)-10-Hydroxy-9-(hydroxymethyl)-2,2,6a,6b,9,12a-hexamethyl-1,2,3,4,4a,5,6,6a,6b,7,8,8a,9,10,11,12,12a,12b,13,14b-icosahydropicene-4a-carbonyl)oxy)ethyl-3-methylpyrazine-2-carboxylate], the melting point was 146.8 °C, the IC50 ([1]; H9c2, 72 h treatment) was 14.7 ± 0.16 µM and the IC50 [2, 6] was 14.12 ± 0.01 µM. For the same compound, the IC50 ([3]; Canis lupus familiaris, MDCK) was 18.64 ± 0.18 µM, the IC50 [4, 7] was 27.3 ± 0.57 µM and the IC50 ([5]; Homo sapiens, HepG2) was 14.84 ± 0.03 µM.
For CC1(C)CC[C@]2(C(=O)OCCCCCl)CC[C@]3(C)C(=CCC4[C@@]5(C)CC[C@H](O)[C@@](C)(CO)C5CC[C@]43C)C2C1 (stereo partly drawn) [Compound 20], the IC50 ([1]; H9c2, 72 h treatment) was > 30 µM, the IC50 [2, 6] was > 30 µM and the IC50 ([3]; Canis lupus familiaris, MDCK) was > 30 µM. The IC50 [4, 7] was > 30 µM and the IC50 ([5]; Homo sapiens, HepG2) was > 30 µM.
N.N.[Cl][Pt][Cl] [DDP, cisplatin, reference compound] gave an IC50 ([1]; 72 h treatment) of 5.31 ± 0.26 µM, an IC50 ([2]; 72 h treatment) of 3.85 ± 0.63 µM and an IC50 [3] of 9.97 ± 1.12 µM. It also gave an IC50 ([4]; 72 h treatment) of 5.17 ± 0.28 µM and an IC50 [5] of 3.42 ± 0.68 µM.
In the case of CC1(C)CC[C@]2(C(=O)O)CC[C@]3(C)C(=CC[C@@H]4[C@@]5(C)CC[C@H](O)[C@@](C)(CO)[C@@H]5CC[C@]43C)[C@@H]2C1 [He, Hederagenin], the IC50 ([1]; H9c2, 72 h treatment) is reported as > 50 µM, the IC50 [2, 6] is reported as > 50 µM and the IC50 ([3]; Canis lupus familiaris, MDCK) is reported as > 50 µM. For the same compound, the IC50 [4, 7] was > 50 µM and the IC50 ([5]; Homo sapiens, HepG2) was > 50 µM.
